Results from US7772183B2 (Bristol-Myers Squibb Company, priority 2005, dated 2010).
Like-named read-outs stand apart in the source and are kept apart here.

Tests used:
[1] = molecular target: T1, human liver cathepsin B (Homo sapiens, UniProt P07858); assay: Specificity assay, cathepsin B; type: biochemical; conditions: read-out: Cathepsin B activity in the specificity assays
T1 construct: purchased Sigma or EMDbiosciences; host or cells: human liver (as named)
Procedure: (§1) The specificities of compounds of the present disclosure were determined against a variety of serine proteases: human neutrophil elastase (HNE), porcine pancreatic elastase (PPE) and human pancreatic chymotrypsin and one cysteine protease: human liver cathepsin B. In all cases, a 96-well plate format protocol using colorimetric p-nitroaniline (pNA) substrate or fluorometric Amino-Methyl-Coumarin (AMC) substrate, specific for each enzyme was used as described previously (PCT Patent Application No. WO 00/09543) with some modifications. All enzymes were purchased from Sigma or EMDbiosciences while the substrates were from Bachem.
(§2) Each pNA assay included a 2 h enzyme-inhibitor pre-incubation at room temperature followed by addition of substrate and hydrolysis to ˜15% conversion as measured on a Spectramax Pro microplate reader. The cathepsin B assay was initiated by adding substrate to a 10 min enzyme-inhibitor pre-incubation at room temperature, and the assay plate measured immediately using the Cytofluor Series 4000. Compound concentrations varied from 100 to 0.4 μM depending on their potency.
(§3) The final conditions for each assay were as follows: […]
(§4) The percentage of inhibition was calculated using the formula: [1−((UVinh−UVblank)/(UVctl−UVblank))]×100 […]

[2] = molecular target: T2, porcine pancreatic elastase (PPE) (Sus scrofa, UniProt P00772); assay: Specificity assay, pancreatic elastase; type: biochemical; conditions: read-out: PPE activity in the specificity assays
T2 construct: purchased Sigma or EMDbiosciences
Procedure: as §1, §2, §3, §4

[3] = system: HCV replicon in HUH-7 cells; assay: HCV replicon FRET assay; type: cell-based, Hepatitis C virus (strain 1b); conditions: Hepatitis C virus
Summary of the method: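 HUH-7 cells stably carrying a genotype 1b subgenomic HCV replicon (NS3–NS5B) treated with compound for 4 days at 37° C, 0.5% DMSO final. Cytotoxicity (CC50) read by alamar Blue; cells then lysed with 10 μM FRET HCV protease peptide substrate and kinetically read (340/490 nm) for EC50.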

[4] = molecular target: T3, human neutrophil elastase (HNE) (Homo sapiens, UniProt P08246); assay: Specificity assay, neutrophil elastase; type: biochemical; conditions: read-out: HLE activity in the specificity assays
T3 construct: purchased Sigma or EMDbiosciences
T3 sequence (P08246 30-267): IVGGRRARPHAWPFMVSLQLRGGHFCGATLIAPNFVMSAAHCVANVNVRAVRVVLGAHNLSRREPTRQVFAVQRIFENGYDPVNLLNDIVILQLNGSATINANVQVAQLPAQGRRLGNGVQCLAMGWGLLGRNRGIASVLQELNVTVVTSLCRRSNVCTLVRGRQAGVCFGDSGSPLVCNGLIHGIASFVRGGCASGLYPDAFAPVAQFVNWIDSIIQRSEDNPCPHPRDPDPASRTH
Procedure: as §1, §2, §3, §4

T2 sequence (P00772 27-266): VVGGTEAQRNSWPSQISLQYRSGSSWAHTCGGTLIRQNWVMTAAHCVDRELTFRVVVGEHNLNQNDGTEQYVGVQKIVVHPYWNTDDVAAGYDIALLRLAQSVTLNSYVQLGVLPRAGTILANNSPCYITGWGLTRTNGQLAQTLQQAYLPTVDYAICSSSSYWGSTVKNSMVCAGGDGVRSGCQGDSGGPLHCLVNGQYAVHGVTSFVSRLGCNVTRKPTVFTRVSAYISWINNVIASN

SMILES: CC(C)(C)OC(=O)N[C@H]1CCCCC/C=C\[C@@H]2C[C@@]2(C(=O)NS(=O)(=O)C2CC2)NC(=O)[C@@H]2C[C@@H](OC(=O)c3ccc(C#N)cc3)CN2C1=O [Compound 26, 18-(4-cyanobenzoyloxy)-14-tert-butoxycarbonylamino-4-cyclopropylsulfonylaminocarbonyl-2,15-dioxo-3,16-diazatricyclo-[14.3.0.0^4,6]-nonadec-7-ene]
- IC50 [1]: ≥ 100 µM
- IC50 [2]: > 100 µM
- melting point: 164 to 166 °C
- EC50 ([3]; 96 h, HUH-7 replicon cells, 4 days, read-out: EC50 in the replicon FRET assay): 7.3 nM
- EC50 ([3]; Huh-7, HCV replicon, for compounds tested, read-out: EC50 Range): < 100 nM
- IC50 [4]: > 100 µM
